Experimental data: US11738037B2, “Agent for preventing or improving decline in brain function” (KYOWA HAKKO BIO CO., LTD., priority 2012, dated 2023)

Key:
Format in all cases: in vivo, C57BL/6J mice
[1] = tested on: bilateral common carotid arteries occlusion mice; experiment: Y-maze test (spontaneous alternation behavior); conditions: oral, after 7 days of administration, FIG. 1
Method: (§1) Experimental Example: 10-week-old male C57BL/6J mice (CLEA Japan, Inc. approximately 25 g of average body weight per mouse) were preliminarily acclimated for 1 week, and provided for experiments. L-citrulline and citicoline were obtained from KYOWA HAKKO BIO CO., LTD.
(§2) C57BL/6J mice were divided into a sham-operation group (Group 1) and a bilateral common carotid arteries occlusion group, which was performed under halothane anesthesia for 20 minutes. One day after reperfusion, the bilateral common carotid arteries occlusion group was further divided into a distilled water-treated group (Group 2), a low-dose L-citrulline-treated group (40 mg/kg: Group 3), a low-dose citicoline-treated group (40 mg/kg: Group 4), a high-dose L-citrulline-treated group (100 mg/kg: Group 5), a high-dose citicoline-treated group (100 mg/kg: Group 6), and a combination treatment group of a low dose of L-citrulline and a low dose of citicoline (each 40 mg/kg: Group 7). Each sample was orally administered for 12 days. […] After evaluating learning memory functions, the hippocampus was removed and viability of hippocampal nerve cells was evaluated.
In the Y-maze test, a Y-maze apparatus with three arms (50×16×32 cm) was used. […] The sequence of arm entries was recorded. The number of entries into each arm was counted during the measurement time, which was defined as the total number of entries. […]

[2] = tested on: bilateral common carotid arteries occlusion mice; experiment: Passive avoidance test; conditions: oral, after 7 days of administration, compared to Group 2, FIG. 2
Method: as §1
(§3) C57BL/6J mice were divided into a sham-operation group (Group 1) and a bilateral common carotid arteries occlusion group, which was performed under halothane anesthesia for 20 minutes. […] After evaluating learning memory functions, the hippocampus was removed and viability of hippocampal nerve cells was evaluated.
The passive avoidance test was performed using a box consisting of dark (25×25×25 cm) and light compartments (14×10×25 cm) and being equipped with an electrical stimulation apparatus at the bottom of the dark compartment. […] Twenty four hours after training, the mouse was placed again in the light compartment, and the latency time spent in the light compartment was recorded with a maximum latency of 300 seconds.

[3] = tested on: bilateral common carotid arteries occlusion mice; experiment: Novel object recognition test; conditions: oral, after 7 days of administration, novel vs familiar object, FIG. 3
Method: as §1
as §2, with “7).” for “7). Each sample was orally administered for 12 days.”
The novel object recognition test was performed after mice were individually acclimated to the open field apparatus (35×25×35 cm) for 2 days. […] A ratio of the frequency of exploring the familiar or novel object over the total exploration frequency was calculated, and used as an index for visual recognition memory.

[4] = tested on: hippocampal nerve cells (CA1 pyramidal cell layer); experiment: Evaluation of viability of hippocampal nerve cells; conditions: oral for 12 days, compared to Group 2, FIG. 4
Method: as §1, §3
Twelve days after bilateral occlusion of the common carotid arteries, mice were anesthetized with pentobarbital sodium, and perfused with ice-cold phosphate buffer (PBS, pH 7.4) until the blood in the body was completely removed. […] Surviving and non-surviving nerve cells in the CA1 pyramidal cell layer of the hippocampus were counted at 1.4 to 1.8 mm posterior to bregma, and cells with PI-positive nuclei and typical morphological characteristics were defined as surviving nerve cells. The cell viability was calculated from a ratio to the average number of surviving nerve cells in Group 1.

## NC(=O)NCCC[C@H](N)C(=O)O [L-citrulline]
[1]; high dose 100 mg/kg, compared to Group 2
  spontaneous alternation behavior rate (Alternation): improved effect of memory behavior
[1]; low dose 40 mg/kg, compared to distilled water-treated occlusion group (Group 2)
  spontaneous alternation behavior rate (Alternation): Alternation cannot be improved
[2]; high dose 100 mg/kg
  time spent in the light compartment (Latency time): improved effect of memory behavior
[2]; low dose 40 mg/kg
  time spent in the light compartment (Latency time): latency time cannot be improved
[3]; high dose 100 mg/kg
  frequency of exploring the novel object: remarkably improved effect of memory behavior
[3]; low dose 40 mg/kg
  frequency of exploring the novel object: frequency of exploring the novel object cannot be increased
[4]; high dose 100 mg/kg
  viability of hippocampal nerve cells: nerve cell-protecting effect
[4]; low dose 40 mg/kg
  viability of hippocampal nerve cells: viability of hippocampal nerve cells cannot be improved
